Results reported in ChEMBL document CHEMBL1148288, “A new aliphatic amino prodrug system for the delivery of small molecules and proteins utilizing novel PEG derivatives” (J Med Chem, 2004).
Structures can show the parent of a compound that is named as a salt.

Test system: P388
Experiment: In vitro inhibitory activity against cancerous P388 cell line
Assay type: functional, cell-based
Conditions: Mus musculus

Structure (SMILES) | IC50 [nM]
COCCOCCOC(=O)NCC(=O)OCCN(CCOC(=O)CNC(=O)OCCOCCOC)CC(=O)NC(=O)[C@@]1(O)Cc2c(O)c3c(c(O)c2[C@H](OC2CC(N)C(O)C(C)O2)C1)C(=O)c1c(OC)cccc1C3=O (stereo not given in full) | 428
COCCOCCOC(=O)NCCOCCOCC(=O)OCCN(CCOC(=O)COCCOCCNC(=O)OCCOCCOC)CC(=O)NC(=O)[C@@]1(O)Cc2c(O)c3c(c(O)c2[C@H](OC2CC(N)C(O)C(C)O2)C1)C(=O)c1c(OC)cccc1C3=O (stereo not given in full) | 1100
COCCOCCOC(=O)NCCOCCOCCNC(=O)COCC(=O)OCCN(CCOC(=O)COCC(=O)NCCOCCOCCNC(=O)OCCOCCOC)CC(=O)NC(=O)[C@@]1(O)Cc2c(O)c3c(c(O)c2[C@H](OC2CC(N)C(O)C(C)O2)C1)C(=O)c1c(OC)cccc1C3=O (stereo not given in full) | 455

The next molecules have a lower IC50 than those just listed; values first:

IC50 [nM] | Structure (SMILES)
316 | COCCOCCOC(=O)NC(C)C(=O)OCCN(CCOC(=O)C(C)NC(=O)OCCOCCOC)CC(=O)NC(=O)[C@@]1(O)Cc2c(O)c3c(c(O)c2[C@H](OC2CC(N)C(O)C(C)O2)C1)C(=O)c1c(OC)cccc1C3=O (stereo not given in full)
17 | COc1cccc2c1C(=O)c1c(O)c3c(c(O)c1C2=O)C[C@@](O)(C(=O)CO)C[C@@H]3O[C@H]1C[C@H](N)[C@H](O)[C@H](C)O1 [DOXORUBICIN HYDROCHLORIDE]
